Molecules are shown by their SMILES.

For experiment [1], the target named is ß1 (Homo sapiens, UniProt P08588). Briefly: Block of ligand binding to β-adrenergic receptor, ß1. Particulars: for IC50: read-out: Concentration (nM) To Block Binding of Ligand by 50% ß1; for inhibition at 10 µM: at 10,000 nM, 50% blockade not achieved at reasonable concentrations, read-out: % blocked at nM concentration shown ß1.
The target of experiment [2] is ß2 (Homo sapiens, UniProt P07550). Nature of the experiment: Block of ligand binding to β-adrenergic receptor, ß2. Particulars: for IC50: read-out: Concentration (nM) To Block Binding of Ligand by 50% ß2; for inhibition at 10 µM: at 10,000 nM, 50% blockade not achieved at reasonable concentrations, read-out: % blocked at nM concentration shown ß2.
Chain of ß2 (P07550 whole entry): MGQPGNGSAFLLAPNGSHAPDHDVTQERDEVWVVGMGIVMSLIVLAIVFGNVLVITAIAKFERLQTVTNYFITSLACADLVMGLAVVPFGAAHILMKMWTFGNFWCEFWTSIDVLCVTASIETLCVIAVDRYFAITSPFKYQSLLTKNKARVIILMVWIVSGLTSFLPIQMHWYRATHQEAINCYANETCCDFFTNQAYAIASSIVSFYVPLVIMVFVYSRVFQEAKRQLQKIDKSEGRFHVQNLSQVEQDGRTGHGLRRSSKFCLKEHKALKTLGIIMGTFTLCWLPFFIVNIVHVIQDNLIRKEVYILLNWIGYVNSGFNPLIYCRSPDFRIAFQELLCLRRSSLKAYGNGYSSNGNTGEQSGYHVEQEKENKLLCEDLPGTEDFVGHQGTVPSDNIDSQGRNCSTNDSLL

Chain of ß1 (P08588 whole entry): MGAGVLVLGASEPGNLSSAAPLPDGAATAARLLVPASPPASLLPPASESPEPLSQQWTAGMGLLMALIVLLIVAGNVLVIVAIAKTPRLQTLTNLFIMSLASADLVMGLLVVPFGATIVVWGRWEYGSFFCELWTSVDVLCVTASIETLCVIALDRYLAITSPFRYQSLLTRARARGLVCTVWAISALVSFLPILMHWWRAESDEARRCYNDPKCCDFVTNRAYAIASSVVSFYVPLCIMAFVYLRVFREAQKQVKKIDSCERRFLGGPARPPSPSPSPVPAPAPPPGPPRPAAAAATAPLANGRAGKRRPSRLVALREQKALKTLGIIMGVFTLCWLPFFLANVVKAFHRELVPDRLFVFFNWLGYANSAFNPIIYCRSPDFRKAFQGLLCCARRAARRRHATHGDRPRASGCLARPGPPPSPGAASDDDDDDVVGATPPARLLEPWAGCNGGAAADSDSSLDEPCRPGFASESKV

Turning to `CCc1nc(N2CCN(C)CC2)c2sccc2n1`, the IC50 in experiment [1] was 2400 nM; in experiment [2], 1040 nM.

For `CCCCc1nc2c(c(N3CCN(C)CC3)n1)SCCC2`, the IC50 in experiment [1] is 4300 nM; in experiment [2], 4800 nM.

In the case of `CCN1CCN(c2nc(C)nc3c2SCCC3)CC1`, the inhibition at 10 µM in experiment [1] came to 3%. Further, in experiment [2], the IC50 came to 27000 nM.

In the case of `Cc1nc2c(c(N3CCN(Cc4ccccc4)CC3)n1)SCCC2`, the inhibition at 10 µM in experiment [1] and in experiment [2] was 0% each time.

For the molecule `Cc1nc2c(c(N3CCN(C)CC3)n1)CSC2`, the results for the inhibition at 10 µM in experiment [1] and in experiment [2] were 15% and 24%, respectively.

Turning to `Cc1nc2c(c(N3CCN(C4CC4)CC3)n1)SCCC2`, the inhibition at 10 µM in experiment [1] was determined as 6%; in experiment [2], 8%.

With `CCc1nc(N2CCNCC2)c2sccc2n1` [R^1 = -C2H5, R^2 = H (the 2nd table r0 drawing)], the IC50 in experiment [1] was 300 nM; in experiment [2], 140 nM.

For `Cc1nc2c(c(N3CCNCC3)n1)SCCC2` [R^1 = -CH3, R^2 = H (the 1st table r1 drawing)], the IC50 in experiment [1] came to 680 nM; in experiment [2], 314 nM.

Regarding `Cc1nc2c(c(N3CCNCC3)n1)CSC2` [R^1 = -CH3, R^2 = H (the 1st table r11 drawing)], the figures for the IC50 in experiment [1] and in experiment [2] were 820 nM and 340 nM, respectively.

(Values after patent EP0276057B1, “Piperazinylpyrimidines as beta-adrenergic receptor blocking agents” (Merck & Co., Inc., priority 1987, dated 1988).)
